The values below come from patent US8211402B2, “CA-IX specific radiopharmaceuticals for the treatment and imaging of cancer” (Molecular Insight Pharmaceuticals, Inc., priority 2008, dated 2012).

The IC50 is the concentration needed to halve the response being measured. A higher IC50 goes with weaker potency in that assay.

The target in one assay is T1, CA-II (Homo sapiens, UniProt P00918).
T1 construct: purchased R&D Systems
Briefly: Inhibition of carbonic anhydrase II (4-nitrophenyl acetate hydrolysis, spectrophotometric at 400 nm). The note with it: purified human enzyme 30 nM; 9 mM Tris-HCl, 81 mM NaCl, pH 7.4, 25° C.; 10 min preincubation. The class given is biochemical. Here is the method: (§1) Compounds were tested for their ability to inhibit carbonic anhydrase isozymes II and IX in vitro. Purified human enzymes were from R&D Systems (Minneapolis, Minn.). The inhibition constants (Ki) for CA-II and CA-IX were determined by the method of Pocker and Stone. Initial rates of 4-nitrophenyl acetate hydrolysis catalyzed by the different carbonic anhydrase isozymes were measured spectrophotometrically at 400 nm. Solutions of substrate (1×10^−2 to 1×10^−6 M) were prepared in anhydrous acetonitrile. A molar extinction coefficient of 18,000 M^−1·cm^−1 was used for the 4-nitrophenolate formed by hydrolysis under the conditions of the experiment (9 mM Tris-HCl, 81 mM NaCl, pH 7.4, 25° C.). The enzyme concentrations were 100 nM for CA-IX and 30 nM for CA-II. Non-enzymatic hydrolysis rates, determined in the absence of added enzyme, were subtracted from the observed rates. […] Dilutions of inhibitor were added to enzyme solutions and preincubated for 10 min to allow for the formation of the E-I complex prior to the addition of substrate. Acetazolamide was included in all assays as positive controls

For another assay, the target named is T2, CA-IX (Homo sapiens, UniProt Q16790).
T2 construct: purchased R&D Systems
The assay is described as follows: Inhibition of carbonic anhydrase IX (4-nitrophenyl acetate hydrolysis, spectrophotometric at 400 nm). The format is biochemical. The settings on record: purified human enzyme 100 nM; 9 mM Tris-HCl, 81 mM NaCl, pH 7.4, 25° C.; 10 min preincubation. The procedure: as §1

Turning to `NS(=O)(=O)c1ccc(NC(=S)N[C@@H](CC(=O)O)C(=O)N[C@@H](CC(=O)O)C(=O)NCc2ccc(I)cc2)cc1` [Comparative Example 1], the figures for the IC50 against CA-II and against CA-IX were 377 nM and 77 nM, respectively.
